Assays:
Assay type in all cases: in vivo
[1] = test system: corn (Zea mays); experiment: Test A postemergence, corn; settings: 0 to 100 scale
Procedure, shortened: (§1)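 Plants grown in a loam soil and sand blend were treated either preemergence by directed soil spray or postemergence when 2 to 10 cm tall (one- to two-leaf stage). Formulation: non-phytotoxic solvent mixture with surfactant. Greenhouse hold ~10 d, then visual injury assessment on a 0–100 scale.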

[2] = test system: blackgrass (Alopecurus myosuroides); experiment: Test A postemergence, blackgrass; settings: 0 to 100 scale
Procedure, shortened: as §1

[3] = test system: ryegrass, Italian (Lolium multiflorum); experiment: Test A postemergence, Italian ryegrass; settings: 0 to 100 scale
Procedure, shortened: as §1

[4] = test system: wheat (Triticum aestivum); experiment: Test A postemergence, wheat; settings: 0 to 100 scale
Procedure, shortened: as §1

[5] = test system: foxtail, giant (Setaria faberii); experiment: Test A preemergence, giant foxtail; settings: 0 to 100 scale
Procedure, shortened: as §1

[6] = test system: ducksalad (Heteranthera limosa); experiment: Test B flooded paddy test, ducksalad; settings: Flood, 250 g ai/ha, applied to paddy water, 2-leaf stage, visual evaluation after 13 to 15 d
Procedure, shortened: (§2)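 Growth to two leaves preceded treatment. Flooding to 3 cm above soil surface, then water-applied compound; depth kept constant. Scored visually relative to controls after 13–15 d greenhouse; 100 means full control.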

[7] = test system: kochia (Kochia scoparia); experiment: Test A preemergence, kochia; settings: 0 to 100 scale
Procedure, shortened: as §1

[8] = test system: barnyardgrass (Echinochloa crus-galli); experiment: Test A preemergence, barnyardgrass; settings: 0 to 100 scale
Procedure, shortened: as §1

[9] = test system: sedge, umbrella (small-flower umbrella sedge, Cyperus difformis); experiment: Test B flooded paddy test, umbrella sedge; settings: Flood, 250 g ai/ha, applied to paddy water, 2-leaf stage, visual evaluation after 13 to 15 d
Procedure, shortened: as §2

[10] = test system: kochia (Kochia scoparia); experiment: Test A postemergence, kochia; settings: 0 to 100 scale
Procedure, shortened: as §1

[11] = test system: galium (catchweed bedstraw, Galium aparine); experiment: Test A postemergence, galium; settings: 0 to 100 scale
Procedure, shortened: as §1

[12] = test system: foxtail, giant (Setaria faberii); experiment: Test A postemergence, giant foxtail; settings: 0 to 100 scale
Procedure, shortened: as §1

[13] = test system: ragweed (common ragweed, Ambrosia elatior); experiment: Test A preemergence, ragweed; settings: 0 to 100 scale
Procedure, shortened: as §1

[14] = test system: barnyardgrass (Echinochloa crus-galli); experiment: Test A postemergence, barnyardgrass; settings: 0 to 100 scale
Procedure, shortened: as §1

[15] = test system: barnyardgrass (Echinochloa crus-galli); experiment: Test B flooded paddy test, barnyardgrass; settings: Flood, 250 g ai/ha, applied to paddy water, 2-leaf stage, visual evaluation after 13 to 15 d
Procedure, shortened: as §2

[16] = test system: rice (Oryza sativa); experiment: Test B flooded paddy test, rice; settings: Flood, 250 g ai/ha, applied to paddy water, 2-leaf stage, visual evaluation after 13 to 15 d
Procedure, shortened: as §2

[17] = test system: ragweed (common ragweed, Ambrosia elatior); experiment: Test A postemergence, ragweed; settings: 0 to 100 scale
Procedure, shortened: as §1

[18] = test system: pigweed (Amaranthus retroflexus); experiment: Test A postemergence, pigweed; settings: 0 to 100 scale
Procedure, shortened: as §1

[19] = test system: ryegrass, Italian (Lolium multiflorum); experiment: Test A preemergence, Italian ryegrass; settings: 0 to 100 scale
Procedure, shortened: as §1

[20] = test system: pigweed (Amaranthus retroflexus); experiment: Test A preemergence, pigweed; settings: 0 to 100 scale
Procedure, shortened: as §1

For `Cc1cc(C)cc(OC[C@@H](C)Nc2ncc(C(F)(F)F)c(N)n2)c1` [Compound 25, N2-[(1R)-2-(3,5-dimethylphenoxy)-1-methylethyl]-5-(trifluoromethyl)-2,4-pyrimidinediamine], which Corn plant response rating (crop injury, 0 = no effect, 100 = complete kill) at 125 g/ha ([1]; Zea mays, post-emergence, 240 h, 125 g ai/ha) is on record?
Its Corn plant response rating (crop injury, 0 = no effect, 100 = complete kill) at 125 g/ha is 20%.

What about the Corn plant response rating (crop injury, 0 = no effect, 100 = complete kill) at 500 g/ha ([1]; Zea mays, post-emergence, 240 h, 500 g ai/ha) of the same compound?
Its Corn plant response rating (crop injury, 0 = no effect, 100 = complete kill) at 500 g/ha is 60%.

What about the pest or weed control at 125 g/ha ([2]; Alopecurus myosuroides, post-emergence, 240 h, 125 g ai/ha, read-out: Plant response rating, Blackgrass) of the same compound?
Its pest or weed control at 125 g/ha is 0%.

What about the pest or weed control at 500 g/ha ([2]; Alopecurus myosuroides, post-emergence, 240 h, 500 g ai/ha, read-out: Plant response rating, Blackgrass) of the same compound?
Its pest or weed control at 500 g/ha is 70%.

And the pest or weed control at 125 g/ha ([3]; Lolium multiflorum, post-emergence, 240 h, 125 g ai/ha, read-out: Plant response rating, Ryegrass, Italian)?
Its pest or weed control at 125 g/ha is 0%.

And the pest or weed control at 500 g/ha ([3]; Lolium multiflorum, post-emergence, 240 h, 500 g ai/ha, read-out: Plant response rating, Ryegrass, Italian)?
Its pest or weed control at 500 g/ha is 20%.

What about the plant injury at 125 g/ha ([4]; Triticum aestivum, post-emergence, 240 h, 125 g ai/ha, read-out: Plant response rating, Wheat) of the same compound?
Its plant injury at 125 g/ha is 0%.

What about the plant injury at 500 g/ha ([4]; Triticum aestivum, post-emergence, 240 h, 500 g ai/ha, read-out: Plant response rating, Wheat) of the same compound?
The plant injury at 500 g/ha was 30%.

What about the “Plant response rating, Foxtail, Giant” value ([5]; 125 g ai/ha) of the same compound?
Its value is 50.

What about the “Plant response rating, Foxtail, Giant” value ([5]; 500 g ai/ha) of the same compound?
Its value is 100.

What about the pest or weed control at 250 g/ha ([6]; Heteranthera limosa, 360 h, read-out: Plant response rating, Ducksalad (0 to 100 scale, 0 is no effect, 100 is complete control)) of the same compound?
The pest or weed control at 250 g/ha was 0%.

What about the “Plant response rating, Kochia” value ([7]; 125 g ai/ha) of the same compound?
Its value is 20.

And the “Plant response rating, Kochia” value ([7]; 500 g ai/ha)?
The value was 90.

And the “Plant response rating, Barnyardgrass” value ([8]; 125 g ai/ha)?
Its value is 90.

And the “Plant response rating, Barnyardgrass” value ([8]; 500 g ai/ha)?
The value was 100.

And the pest or weed control at 250 g/ha ([9]; Cyperus difformis, 360 h, read-out: Plant response rating, Sedge, Umbrella (0 to 100 scale, 0 is no effect, 100 is complete control))?
The pest or weed control at 250 g/ha was 100%.

And the pest or weed control at 125 g/ha ([10]; Bassia scoparia, post-emergence, 240 h, 125 g ai/ha, read-out: Plant response rating, Kochia)?
The pest or weed control at 125 g/ha was 60%.

And the pest or weed control at 500 g/ha ([10]; Bassia scoparia, post-emergence, 240 h, 500 g ai/ha, read-out: Plant response rating, Kochia)?
The pest or weed control at 500 g/ha was 80%.

And the pest or weed control at 125 g/ha ([11]; Galium, post-emergence, 240 h, 125 g ai/ha, read-out: Plant response rating, Galium)?
Its pest or weed control at 125 g/ha is 80%.

And the pest or weed control at 500 g/ha ([11]; Galium, post-emergence, 240 h, 500 g ai/ha, read-out: Plant response rating, Galium)?
The pest or weed control at 500 g/ha was 90%.

What about the pest or weed control at 125 g/ha ([12]; Setaria faberi, post-emergence, 240 h, 125 g ai/ha, read-out: Plant response rating, Foxtail, Giant) of the same compound?
Its pest or weed control at 125 g/ha is 10%.

And the pest or weed control at 500 g/ha ([12]; Setaria faberi, post-emergence, 240 h, 500 g ai/ha, read-out: Plant response rating, Foxtail, Giant)?
The pest or weed control at 500 g/ha was 80%.

What about the “Plant response rating, Ragweed” value ([13]; 125 g ai/ha) of the same compound?
Its value is 80.

What about the “Plant response rating, Ragweed” value ([13]; 500 g ai/ha) of the same compound?
The value was 100.

What about the pest or weed control at 125 g/ha ([14]; Echinochloa crus-galli, post-emergence, 240 h, 125 g ai/ha, read-out: Plant response rating, Barnyardgrass) of the same compound?
Its pest or weed control at 125 g/ha is 50%.

What about the pest or weed control at 500 g/ha ([14]; Echinochloa crus-galli, post-emergence, 240 h, 500 g ai/ha, read-out: Plant response rating, Barnyardgrass) of the same compound?
The pest or weed control at 500 g/ha was 90%.

And the pest or weed control at 250 g/ha ([15]; Echinochloa crus-galli, 360 h, read-out: Plant response rating, Barnyardgrass (0 to 100 scale, 0 is no effect, 100 is complete control))?
Its pest or weed control at 250 g/ha is 0%.

What about the plant injury at 250 g/ha ([16]; Oryza sativa, 360 h, read-out: Plant response rating, Rice (0 to 100 scale, 0 is no effect, 100 is complete control)) of the same compound?
The plant injury at 250 g/ha was 0%.

What about the pest or weed control at 125 g/ha ([17]; Ambrosia artemisiifolia, post-emergence, 240 h, 125 g ai/ha, read-out: Plant response rating, Ragweed) of the same compound?
Its pest or weed control at 125 g/ha is 60%.

And the pest or weed control at 500 g/ha ([17]; Ambrosia artemisiifolia, post-emergence, 240 h, 500 g ai/ha, read-out: Plant response rating, Ragweed)?
The pest or weed control at 500 g/ha was 90%.

And the pest or weed control at 125 g/ha ([18]; Amaranthus retroflexus, post-emergence, 240 h, 125 g ai/ha, read-out: Plant response rating, Pigweed)?
Its pest or weed control at 125 g/ha is 70%.

And the pest or weed control at 500 g/ha ([18]; Amaranthus retroflexus, post-emergence, 240 h, 500 g ai/ha, read-out: Plant response rating, Pigweed)?
Its pest or weed control at 500 g/ha is 90%.

What about the “Plant response rating, Ryegrass, Italian” value ([19]; 125 g ai/ha) of the same compound?
Its value is 20.

What about the “Plant response rating, Ryegrass, Italian” value ([19]; 500 g ai/ha) of the same compound?
The value was 70.

And the “Plant response rating, Pigweed” value ([20]; 125 g ai/ha)?
The value was 60.

What about the “Plant response rating, Pigweed” value ([20]; 500 g ai/ha) of the same compound?
The value was 100.

Which “Plant response rating, Corn” value ([1]; 1000 g ai/ha) does the source give for `C[C@H](COc1ccccc1)Nc1ncc(C(F)(F)F)c(N)n1` [Compound 26] here?
The value was 10.

And the “Plant response rating, Blackgrass” value ([2]; 1000 g ai/ha)?
Its value is 0.

And the “Plant response rating, Ryegrass, Italian” value ([3]; 1000 g ai/ha)?
Its value is 10.

What about the “Plant response rating, Wheat” value ([4]; 1000 g ai/ha) of the same compound?
Its value is 0.

And the “Plant response rating, Foxtail, Giant” value ([5]; 1000 g ai/ha)?
Its value is 50.

And the “Plant response rating, Ducksalad (0 to 100 scale, 0 is no effect, 100 is complete control)” value [6]?
The value was 0.

And the “Plant response rating, Kochia” value ([7]; 1000 g ai/ha)?
Its value is 0.

And the “Plant response rating, Barnyardgrass” value ([8]; 1000 g ai/ha)?
The value was 10.

What about the “Plant response rating, Sedge, Umbrella (0 to 100 scale, 0 is no effect, 100 is complete control)” value [9] of the same compound?
Its value is 0.

What about the “Plant response rating, Kochia” value ([10]; 1000 g ai/ha) of the same compound?
Its value is 30.

And the “Plant response rating, Galium” value ([11]; 1000 g ai/ha)?
Its value is 60.

What about the “Plant response rating, Foxtail, Giant” value ([12]; 1000 g ai/ha) of the same compound?
The value was 0.

And the “Plant response rating, Ragweed” value ([13]; 1000 g ai/ha)?
Its value is 100.

What about the “Plant response rating, Barnyardgrass” value ([14]; 1000 g ai/ha, 0 no effect, 100 complete control) of the same compound?
The value was 0.

And the “Plant response rating, Barnyardgrass (0 to 100 scale, 0 is no effect, 100 is complete control)” value [15]?
The value was 0.

And the “Plant response rating, Rice (0 to 100 scale, 0 is no effect, 100 is complete control)” value [16]?
The value was 0.

And the “Plant response rating, Ragweed” value ([17]; 1000 g ai/ha)?
Its value is 30.

And the “Plant response rating, Pigweed” value ([18]; 1000 g ai/ha)?
The value was 50.

What about the “Plant response rating, Ryegrass, Italian” value ([19]; 1000 g ai/ha) of the same compound?
Its value is 20.

What about the “Plant response rating, Pigweed” value ([20]; 1000 g ai/ha) of the same compound?
The value was 80.
